Calls of active or inactive are those of the source. The calls are words filed in the database; no cut-off is given here.
Legend:
[1] = target: T1, Patatin-like phospholipase domain-containing protein 2 (Mus musculus, UniProt Q8BJ56); assay: Inhibition of murine ATGL expressed in COS-7 cells; type: cell-based
T1 sequence (Q8BJ56 whole entry): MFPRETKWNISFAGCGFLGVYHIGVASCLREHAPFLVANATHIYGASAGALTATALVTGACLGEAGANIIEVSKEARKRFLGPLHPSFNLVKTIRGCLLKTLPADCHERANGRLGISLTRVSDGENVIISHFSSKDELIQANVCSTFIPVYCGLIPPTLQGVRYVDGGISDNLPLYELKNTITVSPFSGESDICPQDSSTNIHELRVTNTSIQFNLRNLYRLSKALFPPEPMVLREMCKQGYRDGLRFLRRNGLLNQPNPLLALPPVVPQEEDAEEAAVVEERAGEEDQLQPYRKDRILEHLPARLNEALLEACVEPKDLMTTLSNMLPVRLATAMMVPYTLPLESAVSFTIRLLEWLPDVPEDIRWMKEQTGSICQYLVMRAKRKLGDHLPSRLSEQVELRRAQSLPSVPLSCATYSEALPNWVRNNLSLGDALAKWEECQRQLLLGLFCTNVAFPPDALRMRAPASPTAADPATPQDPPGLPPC

[2] = target: T2, Patatin-like phospholipase domain-containing protein 2 (Mus musculus) (UniProt Q8BJ56); assay: Inhibition of murine ATGL expressed in COS-7 cells at 200 uM relative to control; type: cell-based
T2 sequence (whole entry): T1 sequence (Q8BJ56 whole entry)

[3] = target: T2, Patatin-like phospholipase domain-containing protein 2 (Mus musculus); assay: Inhibition of murine ATGL at 200 uM relative to control
[4] = target: T1, Patatin-like phospholipase domain-containing protein 2; assay: Inhibition of murine ATGL
[5] = target: T1, Patatin-like phospholipase domain-containing protein 2; assay: Inhibition of recombinant murine ATGL expressed in Escherichia coli XL-1 lysates; type: subcellular
[6] = target: T2, Patatin-like phospholipase domain-containing protein 2 (Mus musculus); assay: Inhibition of recombinant murine ATGL expressed in Escherichia coli XL-1 lysates at 200 uM relative to control; type: subcellular
[7] = In vivo inhibition of ATGL in 12 hrs fasted mouse assessed as reduction in circulating triacylglycerol level at 200 uM administered via oral gavage measured after 8 hrs; type: functional
[8] = In vivo inhibition of ATGL in 12 hrs fasted mouse assessed as reduction in circulating glycerol level at 200 uM administered via oral gavage measured after 8 hrs; type: functional
Mus musculus = assay: In vivo inhibition of ATGL in 12 hrs fasted mouse assessed as reduction in circulating TG level at 200 uM administered via oral gavage in presence of poloxamer measured after 8 hrs; type: functional, organism-based
[9] = In vivo inhibition of ATGL in ad libitum fed mouse assessed as reduction in circulating glycerol level at 200 uM administered via oral gavage measured after 8 hrs; type: functional
[10] = In vivo inhibition of ATGL in 12 hrs fasted mouse assessed as reduction in circulating fatty acid level at 200 uM administered via oral gavage measured after 8 hrs; type: functional
[11] = In vivo inhibition of ATGL in ad libitum fed mouse assessed as reduction in circulating fatty acid level at 200 uM administered via oral gavage measured after 8 hrs; type: functional

Structure (SMILES)	IC50 [1]	inhibition [2]	other results
CN(C)c1ccc(-c2cccc(N)c2)cc1	100 µM	70%	–
CCNS(=O)(=O)c1cccc(-c2ccc(OCC)cc2)c1	200 µM	46%	–
CCCCOC(=O)c1cccc(-c2ccc(OCC)cc2)c1	100 µM	61%	–
CCOC(=O)c1cccc(-c2ccc(CN3CCN(S(C)(=O)=O)CC3)o2)c1	100 µM	66%	–
CCOC(=O)C1CCCC(c2ccc(OCC)cc2)N1 (stereo not given)	> 200 µM	48%	–
CCOC(=O)c1ccc(-c2ccc(OCC)cc2)[nH]1	> 200 µM	44%	–
CCOc1ccc(-c2cccc(C)c2)cc1	70 µM	54%	–
CCOC(=O)c1ccnc(-c2ccc(OCC)cc2)c1	80 µM	87%	–
CCOc1ccc(-n2cc(O)c(C(=O)OC)n2)cc1	–	–	inhibition [3]: 64%; IC50 [4]: 130 µM
CCOC(=O)c1cccc(-c2ccc(CN(C)C)cc2)c1	150 µM	67%	–
CN(C)c1ccc(-c2cccc(NC(=O)OCc3ccccc3)c2)cc1	> 200 µM	50%	–
CCOC(=O)c1cccc(-c2ccc3c(c2)CCN3)c1	120 µM	66%	–
CCOC(=O)c1cccc(-c2ccc(C(=O)CN(C)C)cc2)c1	200 µM	20%	IC50 [5]: 200 µM; inhibition [6]: 4%
CN(C)C(=O)N(C)c1cccc(-c2ccc(N(C)C)cc2)c1	70 µM	74%	–
CCOC(=O)c1ccc(-c2ccc(OCC)cc2)s1	70 µM	81%	–
CCOC(=O)Nc1cccc(-c2ccc(N(C)C)cc2)c1	3 µM	93%	–
CCOC(=O)c1ccn(-c2ccc(OCC)cc2)n1	–	–	inhibition [3]: 89%
CCOc1ccc(-c2cccc(C(=O)N3CCCC3)c2)cc1	160 µM	53%	–
CCCCOC(=O)c1nn(-c2ccc(OCC)cc2)cc1O	–	–	inhibition [3]: 74%; IC50 [4]: 100 µM
CCOC(=O)c1ccc(-c2ccc(OCC)cc2)o1	50 µM	93%	–
CCOC(=O)c1nn(-c2ccc(OCC)cc2)cc1OC	–	–	inhibition [3]: 63%; IC50 [4]: 90 µM
CCOc1ccc(-c2cccc(N)c2)cc1	100 µM	65%	–
CCOc1ccc(-c2cccc(C(=O)OCCOCCOC)c2)cc1	> 200 µM	43%	–
CCOc1ccc(-c2cccc(NC(C)=O)c2)cc1	200 µM	52%	–
CCOC(=O)c1cccc(-c2ccc(OCC)nc2)c1	130 µM	68%	–

Structure (SMILES)	IC50 [1]	inhibition [2]	other results
CN(C)c1ccc(-c2cccc(NC(=O)N3CCOCC3)c2)cc1	> 200 µM	31%	–
CCOC(=O)c1cccc(-c2ccccc2)c1	200 µM	52%	–
CCOC(=O)c1cccc(-c2ccc(CN3CCN(C)CC3)cc2)c1	> 200 µM	26%	IC50 [5]: > 200 µM; inhibition [6]: 32%
CC(C)COC(=O)Nc1cccc(-c2ccc(N(C)C)cc2)c1	22 µM	90%	–
CCOc1ccc(-c2cccc(C(=O)NC)c2)cc1	> 200 µM	40%	–
CCOC(=O)c1cccc(-c2ccc(C(C)N(C)C)cc2)c1 (stereo not given)	200 µM	50%	IC50 [5]: 200 µM; inhibition [6]: 9%
CCOc1ccc(-c2ccccc2)cc1	> 200 µM	35%	–
CCOC(=O)c1cccc(-c2ccc(CN3CCCC3)cc2)c1	> 200 µM	33%	–
CCOC(=O)c1cccc(-c2ccc(OCC)cc2)c1	50 µM	87%	–
CCOC(=O)c1cccc(-c2ccc(CN3CCCCC3)cc2)c1	75 µM	68%	–
CN(C)c1ccc(-c2cccc(NC(=O)Oc3ccccc3)c2)cc1	73 µM	75%	–
CCOC(=O)c1cccc(-c2ccc(OCC)c(N)c2)c1	140 µM	59%	–
CCOC(=O)c1cccc(-c2ccncc2)c1	> 200 µM	40%	–
CCOC(=O)c1cccc(-c2cccs2)c1	90 µM	55%	–
CCOC(=O)c1cccc(-c2ccc3c(ccn3C)c2)c1	75 µM	84%	–
CN(C)c1ccc(-c2cccc([N+](=O)[O-])c2)cc1	> 200 µM	21%	–
CCOC(=O)c1cc(-c2ccc(OCC)cc2)ccn1	105 µM	72%	–
CCOc1ccc(-c2cccc(NC(=O)N(C)C)c2)cc1	70 µM	68%	IC50 [5]: 9 µM; inhibition [6]: 83%
COC(=O)Nc1cccc(-c2ccc(N(C)C)cc2)c1	5 µM	95%	–
CCOC(=O)c1cccc(-c2ccc(O)cc2)c1	100 µM	77%	–
CC(C)OC(=O)Nc1cccc(-c2ccc(N(C)C)cc2)c1	82 µM	69%	–
CCOc1ccc(-c2cccc(S(=O)(=O)NC)c2)cc1	200 µM	47%	–
CN(C)C(=O)Nc1cccc(-c2ccc(N(C)C)cc2)c1	< 5 µM	98%	inhibition in vivo at 200 µM [7]: 37%; inhibition in vivo at 200 µM [8]: 26%; inhibition (Mus musculus): Active; inhibition in vivo at 200 µM [9]: 23%; inhibition [6]: 99%; inhibition in vivo at 200 µM [10]: 27%; inhibition in vivo at 200 µM [11]: 27%
CCOC(=O)c1cncc(-c2ccc(OCC)cc2)c1	130 µM	70%	–
CCOc1ccc(-c2cccc(C(=O)OCC(F)(F)F)c2)cc1	120 µM	71%	–

Structure (SMILES)	IC50 [1]	inhibition [2]	other results
CCOC(=O)N(C)c1cccc(-c2ccc(N(C)C)cc2)c1	> 200 µM	20%	–
CCOC(=O)c1nn(-c2ccc(OCC)cc2)cc1O	–	–	inhibition [3]: 67%; IC50 [4]: 120 µM
CCOC(=O)c1cn(-c2ccc(OCC)cc2)nn1	–	–	IC50 [5]: > 200 µM; inhibition [6]: 43%
CCOC(=O)c1cccc(-c2ccc(C(C)=O)cc2)c1	200 µM	36%	IC50 [5]: 200 µM; inhibition [6]: 17%
CCOC(=O)c1cccc(-c2ccc(OCC)c([N+](=O)[O-])c2)c1	200 µM	44%	–
CCOC(=O)c1cccc(-c2ccc(OCC)cc2)n1	60 µM	79%	–
CCOC(=O)c1cccc(-c2ccc(C(C)N3CCN(C)CC3)cc2)c1 (stereo not given)	90 µM	69%	IC50 [5]: 200 µM; inhibition [6]: 30%
CCOc1ccc(-c2cccc(C(=O)Oc3ccc([N+](=O)[O-])cc3)c2)cc1	150 µM	56%	–
CN(C)c1ccc(-c2cccc(NC(=O)C(C)(C)C)c2)cc1	> 200 µM	25%	–
CCOc1ccc(-c2cccc(S(=O)(=O)N(C)C)c2)cc1	110 µM	63%	–
CCOc1ccc(-c2cccc(C(=O)OCCOC)c2)cc1	70 µM	89%	–
CCOC(=O)c1cccc(-c2ccsc2)c1	75 µM	67%	–
CCOC(=O)c1cccc(-c2ccc(CN3CCN(S(C)(=O)=O)CC3)cc2)c1	100 µM	68%	IC50 [5]: 100 µM; inhibition [6]: 68%
CCCCCCOC(=O)c1cccc(-c2ccc(OCC)cc2)c1	> 200 µM	48%	–
CCOC(=O)c1cccc(-c2ccc(Br)cc2)c1	–	–	IC50 [5]: > 200 µM; inhibition [6]: 34%
CCOc1ccc(-c2cccc([N+](=O)[O-])c2)cc1	> 200 µM	35%	–
CCOc1ccc(-c2cccc(C(=O)O)c2)cc1	> 200 µM	23%	–
CCOC(=O)c1cccc(-c2ccc(C)cc2)c1	140 µM	63%	–
CCOC(=O)c1cccc(-c2ccc(CN3CCN(C)CC3)o2)c1	120 µM	67%	–
CCOc1ccc(-n2cc(O)c(C(=O)O)n2)cc1	–	–	inhibition [3]: 15%; IC50 [4]: > 200 µM
CCOC(=O)c1cccc(-c2ccc(OC)cc2)c1	80 µM	77%	–
CCOC(=O)c1cccc(-c2ccc([N+](=O)[O-])cc2)c1	95 µM	63%	–
CCOC(=O)c1cccc(-c2ccc(CN(C)C)o2)c1	190 µM	53%	–
CCOC(=O)c1cccc(-c2ccc3[nH]ccc3c2)c1	60 µM	80%	–
CCNC(=O)c1cccc(-c2ccc(OCC)cc2)c1	90 µM	62%	–

From ChEMBL document CHEMBL4725289, “Structure-activity relationship studies for the development of inhibitors of murine adipose triglyceride lipase (ATGL)” (Bioorg Med Chem, 2020)
